The supplement of paper PMC7801607

Test system: Plasmodium falciparum Dd2 asexual blood stage

Row | SMILES | IC50
1 | CC[C@@H](CO)NCCN[C@@H](CC)CO | > 5 µM
2 | CN(C)c1[nH]c(=O)ncc1F | > 5 µM
3 | CN(C/C=C/C#CC(C)(C)C)Cc1cccc2ccccc12 | > 5 µM
4 | CC(C)(C)c1ccc(C(Cn2cccc(C(F)(F)F)c2=O)NC2Cc3ccccc3C2)cc1 (centres undefined) | 4.6 µM
5 | NC(=O)c1cnccn1 | > 5 µM
6 | O=C(NC(=O)N1CCCc2ccccc21)c1ccc(Cl)cc1Cl | > 5 µM
7 | OCCC#Cc1nc(-c2ccc(F)cc2)c(-c2ccncc2)n1CCCc1ccccc1 | > 5 µM
8 | CCC[C@H](NC(=O)[C@@H]1[C@H]2CCC[C@H]2CN1C(=O)[C@@H](NC(=O)[C@@H](NC(=O)c1cnccn1)C1CCCCC1)C(C)(C)C)C(=O)C(=O)NC1CC1 | > 5 µM
9 | O=C(Nc1ccccc1)N(Cc1cc(Br)ccc1O)c1ccc(F)cc1 | > 5 µM
10 | N[C@H]1CCC[C@H]1C(=O)O | > 5 µM
11 | O=S(=O)(Nc1ccc(-n2cccc2)cc1)c1ccc(Cl)c(Cl)c1 | > 5 µM
12 | CC1(C)C[C@H]1C(=O)N/C(=C\CCCCSC[C@@H](N)C(=O)O)C(=O)O | > 5 µM
13 | CCCCCCCc1[nH]c2ccccc2c(=O)c1O | 4.88 µM
14 | O=C(NCc1cccc2ccccc12)c1cccs1 | > 5 µM
15 | CC(=O)O[C@H]1C[C@@]2(C)[C@@H](C[C@@H](O)[C@H]3[C@@]4(C)CC[C@@H](O)[C@@H](C)[C@@H]4CC[C@@]32C)/C1=C(\CCC=C(C)C)C(=O)O | > 5 µM
16 | O=C(O)COc1cccc2c1CC[C@](O)(COC(=O)N(c1ccccc1)c1ccccc1)C2 | > 5 µM
17 | CNc1nc(=O)[nH]cc1F | > 5 µM
18 | c1cc(CN2CCCNCCNCCCNCC2)ccc1CN1CCCNCCNCCCNCC1 | > 5 µM
19 | NC(=O)c1ccccc1NC(=O)c1ccc(C(=O)Nc2ccccc2C(N)=O)cc1 | > 5 µM
20 | CCN1CCN(Cc2nc3ccc([N+](=O)[O-])cc3c(=O)n2-c2ccccc2F)CC1 | > 5 µM
21 | O=C(c1ccc(F)cc1)N1CCN2C(=O)c3ccccc3C12c1ccccc1 (centres undefined) | > 5 µM
22 | CC(N)C12CC3CC(CC(C3)C1)C2 (centres undefined) | > 5 µM
23 | C=C(C)n1c(=O)n(Cc2ccccc2C)c2ccccc21 | > 5 µM
24 | OC(Cn1cncn1)(Cn1cncn1)c1ccc(F)cc1F | > 5 µM
25 | CC(C)C(=O)N[C@H]1[C@H]([C@H](O)[C@H](O)CO)OC(C(=O)O)=C[C@@H]1N=[N+]=[N-] | > 5 µM
26 | OB1OCc2cc(Cl)ccc21 | > 5 µM
27 | O=S(=O)(Nc1ccccc1)c1ccc(NC(=S)Nc2ccccc2)cc1 | > 5 µM
28 | O=C(CP(=O)(O)O)NCCc1cccc(Oc2ccccc2)c1 | > 5 µM
29 | O=C(Nc1[nH]c(=O)ncc1F)c1ccccc1 | > 5 µM
30 | CC(=O)N[C@H](C)C(=O)N[C@H](Cc1ccccc1)C(=O)O | > 5 µM

Further lines, results first:

Row | IC50 | SMILES
31 | > 5 µM | CC(C)(C)c1cc(C(=O)/C(C#N)=N/Nc2cccc(Cl)c2)no1
32 | > 5 µM | Cc1cc(-c2ccccc2)c(C(=O)C(=O)Nc2ccc(N3CCN(c4ncc(F)cn4)CC3)cc2)n1C
33 | > 5 µM | Cc1c(CN(C)C(=O)/C=C/c2cnc3c(c2)C(C)(C)C(=O)N3)oc2ccccc12
34 | > 5 µM | CC[C@@H]1C(=O)OC[C@@H]1Cc1cncn1C
35 | > 5 µM | COc1ccc(C)cc1NC(=O)c1ccc(S(=O)(=O)N2CCCCC2)cc1
36 | > 5 µM | O=C(O)c1cc(-c2ccccc2)nc2ccccc12
37 | > 5 µM | CC(Oc1ccc(Cl)cc1Cl)C(=O)NCc1ccc2c(c1)OCO2 (centres undefined)
38 | > 5 µM | COc1c(F)c(F)cc2c(=O)c(C(=O)O)cn(C3CC3)c12
39 | > 5 µM | COc1ccc2c(c1OC)C(=O)OC2C1c2c(cc3c(c2OC)OCO3)CCN1C (centres undefined)
40 | > 5 µM | Cc1c(N)cccc1Cn1ccc(OCCc2cccs2)cc1=O
41 | > 5 µM | Nc1cc(-c2nc3ccccc3[nH]2)n[nH]c1=O
42 | > 5 µM | Cc1ccn2c(C(=O)NCc3ccccc3)c(C)nc2c1
43 | > 5 µM | O=c1[nH]c(=O)n(Cc2cccc(Oc3ccccc3)c2)cc1Nc1ccccc1
44 | > 5 µM | O=C(c1nc2c(C(F)(F)F)cc(C3CC3)cn2c1Cl)N1CCN([C@H]2CC[C@H](O)CC2)C(=O)C1
45 | > 5 µM | NC(=O)c1cnc2ccc(S(=O)(=O)c3ccccc3)cc2c1Nc1ccc(O)cc1
46 | > 5 µM | COc1cc2c(O)c3c(c(-c4ccc5c(c4)OCO5)c2cc1OC)C(=O)OC3
47 | > 5 µM | CC(C)(C)OC(=O)NCc1ccc(C(=O)N[C@H]2CCOC2=O)cc1
48 | > 5 µM | CO/N=C(\C(=O)N[C@@H]1C(=O)N2C(C(=O)OCOC(=O)C(C)(C)C)=C(/C=C\c3scnc3C)CS[C@H]12)c1csc(N)n1
49 | > 5 µM | COc1ccccc1NC(=O)c1ccccc1Sc1ccc([N+](=O)[O-])cc1
50 | > 5 µM | CSC[C@H]1CN(Cc2c[nH]c3c(N)ncnc23)C[C@@H]1O
51 | > 5 µM | COc1cc(C(C(=O)NC2CCCCC2)N(C(=O)Cc2c[nH]c3ccccc23)c2ccc(C(C)C)cc2)cc(OC)c1OC (centres undefined)
52 | > 5 µM | CCc1cc(CCC(=O)Nc2ccccc2O)c(=O)[nH]c1C

Row | IC50 | SMILES
53 | > 5 µM | NC(=O)c1nccn([C@@H]2O[C@H](CO)[C@@H](O)[C@H]2O)c1=O
54 | > 5 µM | COc1ccc(OCc2ccc(COc3c(Cl)cccc3Cl)cc2)c(Cl)c1
55 | > 5 µM | CCNC(=O)Nc1cn2c(-c3ncc(CC)cn3)cc(-c3cccnc3)cc2n1
56 | > 5 µM | Nc1nc(-c2ccccc2)nc2c1ncn2[C@@H]1O[C@H](COS(=O)(=O)NC(=O)c2ccccc2O)[C@@H](O)[C@H]1O
57 | > 5 µM | CO[C@@]1(NC(=O)Cc2cccs2)C(=O)N2C(C(=O)O)=C(COC(N)=O)CS[C@@H]21
58 | > 5 µM | CN(Cc1ccc(C(C)(C)C)cc1)Cc1cccc2ccccc12
59 | > 5 µM | Cc1cccc(CC(=O)N[C@H]2CCOC2=O)c1
60 | > 5 µM | C=CCc1cc(Cc2cnc(N)nc2N)cc(OC)c1O
61 | > 5 µM | CN(C)CCNC(=O)c1cccc2cccnc12
62 | > 5 µM | Cc1cc(CCCOc2c(C)cc(-c3noc(C(F)(F)F)n3)cc2C)on1
63 | > 5 µM | COc1cc(Cc2cnc(N)nc2N)c2c(c1OC)OC(C1CC1)C=C2 (centres undefined)
64 | > 5 µM | CCn1cc(C(=O)O)c(=O)c2cc(F)c(N3CCNC(C)C3)c(F)c21 (centres undefined)
65 | > 5 µM | CC[C@H](CO)Nc1nc(NCc2ccccc2)c2ncn(C(C)C)c2n1
66 | > 5 µM | CCCC1(C2CC2)c2cc(Cl)ccc2NC(=O)N1C (centres undefined)
67 | > 5 µM | Nc1nnnn1CCOc1c2[nH]c3ccc(Cl)cc3c2cc2c1[nH]c1ccc(Cl)cc12
68 | > 5 µM | CC#C[C@]1(O)CC[C@H]2[C@@H]3CCC4=CC(=O)CCC4=C3[C@@H](c3ccc(N(C)C)cc3)C[C@@]21C
69 | > 5 µM | CC(C)(C)c1cccc(-c2nc3cc(C(=N)N)ccc3[nH]2)c1O
70 | > 5 µM | COc1cccc(N2CCN(C3=Nc4c(F)cccc4[C@H](CC(=O)O)N3c3cc(C(F)(F)F)ccc3OC)CC2)c1
71 | > 5 µM | O=C(O)c1ccc(-c2ccc(O[C@H]3O[C@H](CO)[C@@H](O)[C@H](O)[C@@H]3O)cc2)cc1
72 | > 5 µM | CCc1nc2ccc(Cl)cn2c1C(=O)NCc1ccc(N2CCC(c3ccc(OC(F)(F)F)cc3)CC2)cc1
73 | > 5 µM | CCc1cc(Cc2cnc(N)nc2N)cc2c1N(C)CCC2C (centres undefined)
74 | > 5 µM | FC(F)(F)c1cc(C(F)(F)F)c2ccc3nc(-c4nnco4)cn3c2n1
